Measurements: patent publication US11739098B2 (BRISTOL-MYERS SQUIBB COMPANY, priority 2017, dated 2023)
pIC50: −log10 of the molar value.

Tests used:
Format in all cases: cell-based
[1] = biological target: T1, human TLR7 (Homo sapiens, UniProt Q9NYK1); assay: TLR7 inhibition reporter assay (HEK-Blue cells, SEAP reporter, gardiquimod stimulation); settings: HEK-Blue cells overexpressing human TLR7, SEAP reporter, gardiquimod 7.5 μM
T1 construct: host or cells: HEK-Blue cells (HEK293-derived reporter line)
T1 sequence (Q9NYK1 27-1049): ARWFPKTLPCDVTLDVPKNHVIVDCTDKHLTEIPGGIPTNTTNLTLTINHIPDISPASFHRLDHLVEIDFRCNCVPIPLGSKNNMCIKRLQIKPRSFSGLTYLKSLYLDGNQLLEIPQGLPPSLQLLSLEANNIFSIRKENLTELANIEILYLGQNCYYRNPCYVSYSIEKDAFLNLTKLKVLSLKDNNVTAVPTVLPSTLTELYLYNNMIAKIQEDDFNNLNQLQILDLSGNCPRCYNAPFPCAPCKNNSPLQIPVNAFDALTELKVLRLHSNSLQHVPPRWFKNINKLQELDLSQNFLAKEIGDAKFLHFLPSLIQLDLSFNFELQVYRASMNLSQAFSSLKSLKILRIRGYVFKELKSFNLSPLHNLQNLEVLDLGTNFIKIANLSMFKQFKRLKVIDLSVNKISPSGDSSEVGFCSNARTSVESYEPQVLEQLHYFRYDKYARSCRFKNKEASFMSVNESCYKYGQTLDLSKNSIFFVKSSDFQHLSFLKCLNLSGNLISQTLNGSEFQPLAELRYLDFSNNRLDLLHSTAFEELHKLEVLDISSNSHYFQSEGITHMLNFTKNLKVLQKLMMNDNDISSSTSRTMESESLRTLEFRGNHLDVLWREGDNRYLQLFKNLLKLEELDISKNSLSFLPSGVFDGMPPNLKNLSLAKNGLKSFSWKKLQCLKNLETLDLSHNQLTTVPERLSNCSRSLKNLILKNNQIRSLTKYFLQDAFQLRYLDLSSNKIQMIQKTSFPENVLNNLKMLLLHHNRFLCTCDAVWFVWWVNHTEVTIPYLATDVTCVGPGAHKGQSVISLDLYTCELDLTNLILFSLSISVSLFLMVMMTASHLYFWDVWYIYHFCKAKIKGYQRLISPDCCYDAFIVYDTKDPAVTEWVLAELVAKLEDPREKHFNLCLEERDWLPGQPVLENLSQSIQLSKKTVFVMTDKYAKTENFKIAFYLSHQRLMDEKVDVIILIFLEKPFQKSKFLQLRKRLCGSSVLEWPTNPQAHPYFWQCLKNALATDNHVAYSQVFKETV
How it was run: (§1)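 After 22 h at 37 °C, SEAP secretion was measured from human TLR7-, TLR8- or TLR9-expressing HEK-Blue reporter cells given compound (0.05 nM–50 μM) 30 min before agonist: 7.5 μM gardiquimod, 15.9 μM R848 or 5 nM ODN2006 respectively. Percent inhibition referenced to agonist-plus-DMSO and known-inhibitor wells.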

[2] = biological target: T2, human TLR8 (Homo sapiens, UniProt Q9NR97); assay: TLR8 inhibition reporter assay (HEK-Blue cells, SEAP reporter, R848 stimulation); settings: HEK-Blue cells overexpressing human TLR8, SEAP reporter, R848 15.9 μM
T2 construct: host or cells: HEK-Blue cells (HEK293-derived reporter line)
T2 sequence (Q9NR97 27-1041): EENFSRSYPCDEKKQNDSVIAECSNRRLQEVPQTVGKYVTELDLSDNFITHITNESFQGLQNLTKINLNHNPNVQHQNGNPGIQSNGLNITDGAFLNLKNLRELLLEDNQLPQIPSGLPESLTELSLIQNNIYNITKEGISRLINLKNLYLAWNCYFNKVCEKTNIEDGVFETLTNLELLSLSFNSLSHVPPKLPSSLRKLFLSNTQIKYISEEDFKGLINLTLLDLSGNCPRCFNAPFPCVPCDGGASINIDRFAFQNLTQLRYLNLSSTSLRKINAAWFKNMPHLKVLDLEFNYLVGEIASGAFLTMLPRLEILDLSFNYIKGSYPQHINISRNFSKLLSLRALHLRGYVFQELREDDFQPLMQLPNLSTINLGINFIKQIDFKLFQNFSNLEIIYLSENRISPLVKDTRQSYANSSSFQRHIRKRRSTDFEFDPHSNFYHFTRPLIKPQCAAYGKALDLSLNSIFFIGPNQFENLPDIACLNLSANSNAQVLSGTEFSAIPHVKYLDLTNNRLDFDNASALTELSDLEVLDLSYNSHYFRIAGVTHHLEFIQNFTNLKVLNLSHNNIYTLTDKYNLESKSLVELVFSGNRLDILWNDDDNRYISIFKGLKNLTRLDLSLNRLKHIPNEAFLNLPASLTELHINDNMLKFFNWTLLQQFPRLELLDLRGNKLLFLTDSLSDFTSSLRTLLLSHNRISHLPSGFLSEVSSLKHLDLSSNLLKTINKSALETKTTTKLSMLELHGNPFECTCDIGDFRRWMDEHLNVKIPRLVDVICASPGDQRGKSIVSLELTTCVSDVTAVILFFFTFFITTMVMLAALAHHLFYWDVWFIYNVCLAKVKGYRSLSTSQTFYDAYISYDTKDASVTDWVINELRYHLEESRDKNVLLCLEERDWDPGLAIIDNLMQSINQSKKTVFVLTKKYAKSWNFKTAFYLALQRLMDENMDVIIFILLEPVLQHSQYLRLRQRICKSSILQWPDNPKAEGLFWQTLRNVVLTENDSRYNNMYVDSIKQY
How it was run: as §1

[3] = biological target: T3, human TLR9 (Homo sapiens, UniProt Q9NR96); assay: TLR9 inhibition reporter assay (HEK-Blue cells, SEAP reporter, ODN2006 stimulation); settings: HEK-Blue cells overexpressing human TLR9, SEAP reporter, ODN2006 5 nM
T3 construct: host or cells: HEK-Blue cells (HEK293-derived reporter line)
T3 sequence (Q9NR96 26-1032): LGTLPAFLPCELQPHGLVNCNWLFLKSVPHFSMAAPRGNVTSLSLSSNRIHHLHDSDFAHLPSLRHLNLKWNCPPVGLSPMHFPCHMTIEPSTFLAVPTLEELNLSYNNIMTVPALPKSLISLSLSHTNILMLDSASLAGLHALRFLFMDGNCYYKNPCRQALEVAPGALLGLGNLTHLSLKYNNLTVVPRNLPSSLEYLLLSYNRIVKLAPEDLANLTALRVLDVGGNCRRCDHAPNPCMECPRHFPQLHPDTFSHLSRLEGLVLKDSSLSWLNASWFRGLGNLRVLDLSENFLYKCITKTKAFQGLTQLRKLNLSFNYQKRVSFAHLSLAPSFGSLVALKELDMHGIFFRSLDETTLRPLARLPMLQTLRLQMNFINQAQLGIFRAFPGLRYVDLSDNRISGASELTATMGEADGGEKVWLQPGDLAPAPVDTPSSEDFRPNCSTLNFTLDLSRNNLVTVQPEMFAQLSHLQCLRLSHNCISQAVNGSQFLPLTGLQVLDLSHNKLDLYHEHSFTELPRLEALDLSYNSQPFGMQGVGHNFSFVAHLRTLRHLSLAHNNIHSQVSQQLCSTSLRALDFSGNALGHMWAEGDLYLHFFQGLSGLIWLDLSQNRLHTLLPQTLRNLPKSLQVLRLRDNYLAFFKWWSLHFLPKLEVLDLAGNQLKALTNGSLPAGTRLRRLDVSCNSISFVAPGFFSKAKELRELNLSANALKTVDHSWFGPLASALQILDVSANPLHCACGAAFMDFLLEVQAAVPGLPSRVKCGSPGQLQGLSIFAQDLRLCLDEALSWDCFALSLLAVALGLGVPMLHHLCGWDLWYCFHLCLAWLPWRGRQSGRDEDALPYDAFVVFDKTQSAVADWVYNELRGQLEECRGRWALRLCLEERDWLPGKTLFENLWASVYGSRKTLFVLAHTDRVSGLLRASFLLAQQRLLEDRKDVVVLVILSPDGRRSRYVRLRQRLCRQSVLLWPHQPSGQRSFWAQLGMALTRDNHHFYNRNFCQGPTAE
How it was run: as §1

| SMILES | pIC50 [1] | pIC50 [2] | pIC50 [3] |
| --- | --- | --- | --- |
| COc1cc(-c2[nH]c3ccc(C4CCN(CCS(C)(=O)=O)CC4)cc3c2C(C)C)cc2ncnn12 [Example 797, 7-(3-isopropyl-5-(1-(2-(methylsulfonyl)ethyl)piperidin-4-yl)-1H-indol-2-yl)-5-methoxy-[1,2,4]triazolo[1,5-a]pyridine] | > 7.00 | > 7.00 | 4.30 to 6.00 |
| CNC(=O)CN1CCC(c2ccc3[nH]c(-c4cc(C)c5c(cnn5C)c4)c(C(C)C)c3c2)CC1 [Example 364, 2-(4-(2-(1,7-dimethyl-1H-indazol-5-yl)-3-isopropyl-1H-indol-5-yl)piperidin-1-yl)-N-methylacetamide] | 6.00 to 7.00 | < 5.51 | 4.30 to 6.00 |
| CC(C)c1c(-c2ccc3ncccc3c2)[nH]c2ccc(C3CCNCC3)cc12 [Example 190, 6-(3-isopropyl-5-(piperidin-4-yl)-1H-indol-2-yl)quinoline] | > 7.00 | 4.30 to 6.00 | 4.30 to 6.00 |
| CNC(=O)CN1CCC(c2ccc3[nH]c(-c4ccc5c(cnn5C)c4C)c(C(C)C)c3c2)CC1 [Example 365, 2-(4-(2-(1,4-dimethyl-1H-indazol-5-yl)-3-isopropyl-1H-indol-5-yl)piperidin-1-yl)-N-methylacetamide] | > 7.00 | 6.00 to 7.00 | < 4.30 |
| CCc1c(-c2ccnc3[nH]nc(CC)c23)[nH]c2ccc(C3CCNCC3)cc12 [Example 224, 3-ethyl-4-(3-ethyl-5-(piperidin-4-yl)-1H-indol-2-yl)-1H-pyrazolo[3,4-b]pyridine] | 6.00 to 7.00 | > 7.00 | 6.00 to 7.00 |
| CNC(=O)CN1CCC(c2ccc3[nH]c(-c4cc(C)c5oc(=O)n(C)c5c4)c(C(C)C)c3c2)CC1 [Example 336, 2-(4-(2-(3,7-dimethyl-2-oxo-2,3-dihydrobenzo[d]oxazol-5-yl)-3-isopropyl-1H-indol-5-yl)piperidin-1-yl)-N-methylacetamide] | > 7.00 | 6.00 to 7.00 | 4.30 to 6.00 |
| Cc1cc(-c2[nH]c3ccc(C4CCN(CC(N)=O)CC4)cc3c2C(C)C)cc2cccnc12 [Example 436, 2-(4-(3-isopropyl-2-(8-methylquinolin-6-yl)-1H-indol-5-yl)piperidin-1-yl)acetamide] | > 7.00 | > 7.00 | 4.30 to 6.00 |
| CC(C)c1c(-c2ccc3[nH]ncc3c2)[nH]c2ccc(C3CCNCC3)cc12 [Example 169, 5-(3-isopropyl-5-(piperidin-4-yl)-1H-indol-2-yl)-1H-indazole] | 6.00 to 7.00 | 4.30 to 6.00 | 4.30 to 6.00 |
| COCCN1CCC(c2ccc3[nH]c(-c4cc(OC)n5ncnc5c4)c(C(C)C)c3c2)CC1 [Example 780, 7-(3-isopropyl-5-(1-(2-methoxyethyl)piperidin-4-yl)-1H-indol-2-yl)-5-methoxy-[1,2,4]triazolo[1,5-a]pyridine] | > 7.00 | > 7.00 | 4.30 to 6.00 |
| Cc1nn2ccc(-c3[nH]c4ccc(C5CCNCC5)cc4c3C(C)C)cc2c1F [Example 146, 3-fluoro-5-(3-isopropyl-5-(piperidin-4-yl)-1H-indol-2-yl)-2-methylpyrazolo[1,5-a]pyridine] | > 7.00 | 6.00 to 7.00 | < 4.30 |
| CC(C)c1c(-c2n[nH]c3nc[nH]c(=O)c23)[nH]c2ccc(C3CCNCC3)cc12 [Example 21, 3-(3-isopropyl-5-(piperidin-4-yl)-1H-indol-2-yl)-1,5-dihydro-4H-pyrazolo[3,4-d]pyrimidin-4-one] | 4.30 to 6.00 | 6.00 to 7.00 | 4.30 to 6.00 |
| CC(C)c1c(-c2cnc3ccnn3c2)[nH]c2ccc(C3CCN(CC(=O)N(C)C)CC3)cc12 [Example 359, 2-(4-(3-isopropyl-2-(pyrazolo[1,5-a]pyrimidin-6-yl)-1H-indol-5-yl)piperidin-1-yl)-N,N-dimethylacetamide] | 4.30 to 6.00 | < 5.51 | 4.30 to 6.00 |
| Cc1cc(-c2[nH]c3ccc(C4CCN(C5CCS(=O)(=O)CC5)CC4)cc3c2C(C)C)cc2cccnc12 [Example 800, 4-(4-(3-isopropyl-2-(8-methylquinolin-6-yl)-1H-indol-5-yl)piperidin-1-yl)tetrahydro-2H-thiopyran 1,1-dioxide] | > 7.00 | 6.00 to 7.00 | 4.30 to 6.00 |
| CC(C)c1c(-c2cc(CO)c3nnnn3c2)[nH]c2ccc(C3CCN(CC4(C)COC4)CC3)cc12 [Example 781, (6-(3-isopropyl-5-(1-((3-methyloxetan-3-yl)methyl)piperidin-4-yl)-1H-indol-2-yl)tetrazolo[1,5-a]pyridin-8-yl)methanol] | > 7.00 | > 7.00 | 4.30 to 6.00 |
| Cc1cc(-c2[nH]c3ccc(C4CCN(CCS(C)(=O)=O)CC4)cc3c2C(C)C)cn2nnnc12 [Example 789, 6-(3-isopropyl-5-(1-(2-(methylsulfonyl)ethyl)piperidin-4-yl)-1H-indol-2-yl)-8-methyltetrazolo[1,5-a]pyridine] | > 7.00 | > 7.00 | 4.30 to 6.00 |
